Holding throughout (assay): isothermal titration calorimetry
Format in all cases: binding
Common to all, as to settings: Tris-HCl, 150 mM NaCl, pH 7.9-8.0, 20 °C; 30 µM trimer; one-site model

The target in test [1] is ScSbtB (SbtB) (Synechocystis sp. PCC 6803, UniProt P73954, R43A).
Test [2] deals with ScSbtB (SbtB) (Synechocystis sp. PCC 6803, UniProt P73954, K40A).
For test [3], the target named is ScSbtB (SbtB) (Synechocystis sp. PCC 6803, UniProt P73954, R46A).
Sequence of ScSbtB (SbtB) (Synechocystis sp. PCC 6803, UniProt P73954, R46A) (P73954 2-110 R46A): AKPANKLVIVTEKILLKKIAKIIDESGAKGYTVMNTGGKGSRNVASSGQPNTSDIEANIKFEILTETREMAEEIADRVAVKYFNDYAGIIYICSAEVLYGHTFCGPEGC

Sequence of ScSbtB (SbtB) (Synechocystis sp. PCC 6803, UniProt P73954, R43A) (P73954 2-110 R43A): as the sequence (P73954 2-110 R46A) above, with R42A, A45R counted along it
Sequence of ScSbtB (SbtB) (Synechocystis sp. PCC 6803, UniProt P73954, K40A) (P73954 2-110 K40A): as the sequence (P73954 2-110 R46A) above, with K39A, A45R counted along it

Take `Nc1ncnc2c1ncn2[C@@H]1O[C@H](COP(=O)(O)OP(=O)(O)OP(=O)(O)O)[C@@H](O)[C@H]1O` [ATP]: the Kd at ScSbtB (SbtB) [1] is 213 µM; at ScSbtB (SbtB) [2], 357 µM.

For `Nc1ncnc2c1ncn2[C@@H]1O[C@H](COP(=O)(O)OP(=O)(O)O)[C@@H](O)[C@H]1O` [ADP], the Kd at ScSbtB (SbtB) [3] came to 435 µM; on ScSbtB (SbtB) [1], 472 µM; on ScSbtB (SbtB) [2], 877 µM.

In the case of `Nc1ncnc2c1ncn2[C@@H]1O[C@H](COP(=O)(O)O)[C@@H](O)[C@H]1O` [AMP], on ScSbtB (SbtB) [3], the Kd stood at 94.3 µM.

The term Kd denotes the equilibrium constant for the complex coming apart.

For the origin of these results see article doi:10.1101/2023.08.10.552651v1 (biorxiv, 2023).
